Data on 19 compounds can be found in patent publication US6372466B1, “C-4 specific sulfotransferase” (Seikagaku Corporation, priority 1998, dated 2002).

Entries after “also recorded” stand apart in the source; their conditions may differ.

Holding throughout (format): biochemical, rat
Experiment [1] relates to G4ST. As to the kind of experiment: Substrate specificity of G4ST (sulfate transfer to glycosaminoglycans). Particulars: for transfer of a sulfate group by G4ST to the glycosaminoglycan as acceptor: 25 nmol as galactosamine or glucosamine, replacing chondroitin in the reaction mixture. Here is the method: According to the measurement method for enzymatic activity described above, the activity of G4ST of transferring a sulfate group to glycosaminoglycans other than chondroitin was measured. A reaction mixture used as a control of reaction was the reaction mixture described for the above-mentioned assay method for enzymatic activity (imidazole hydrochloride (2.5 μmol, pH 6.8), protamine chloride (1.25 μg), dithiothreitol (0.1 μmol), chondroitin (25 nmol as glucuronic acid), [^35S]PAPS (50 pmol: about 5.0×10^5 cpm), and an enzyme, total volume 50 μl) and the activity was measured by replacing the chondroitin contained in the above-mentioned reaction mixture as a control with (1) chondroitin sulfate A (derived from whale cartilage) (manufactured by Seikagaku Corp.), chondroitin sulfate C (derived from shark cartilage) (manufactured by Seikagaku Corp.), and chondroitin sulfate E (derived from squid cartilage) (prepared by the method described in Habuchi, O., Sugiura, K., Kawai, N. and Suzuki, S. (1977) J. Biol. Chem. 252, 4570-4576), (2) dermatan sulfate (derived from pig skin) (manufactured by Seikagaku Corp.), (3) desulfated dermatan sulfate (prepared by the method described by Nagasawa, et al. (Nagasawa, K., Inoue, Y., and Tokuyasu, T. (1995) J. Biochem. 86, 1323-1329)), (4) heparan sulfate (derived from bovine kidney) (manufactured by Seikagaku Corp.), (5) CDSNS-heparin (completely desulfated N-sulfated heparin: manufactured by Seikagaku Corp.), and (6) keratan sulfate (derived from bovine cornea) (manufactured by Seikagaku Corp.) ((1), (2) and (3) were each in an amount of 25 nmol as galactosamine, while (4), (5) and (6) were each in an amount of 25 nmol as glucosamine).
To identify a sulfate group receptor, the purified G4ST was allowed to react with various glycosaminoglycans in the presence of protamine chloride in various concentrations (FIG. 7). In FIG. 7, closed circles indicate the results on chondroitin, open circles indicates the results on desulfated dermatan sulfate, closed triangles indicate the results on chondroitin sulfate A, open triangles indicates the results on chondroitin sulfate C, and closed square indicate the results on dermatan sulfate.
Target sequence in this assay (P69478 101-352 limits assumed): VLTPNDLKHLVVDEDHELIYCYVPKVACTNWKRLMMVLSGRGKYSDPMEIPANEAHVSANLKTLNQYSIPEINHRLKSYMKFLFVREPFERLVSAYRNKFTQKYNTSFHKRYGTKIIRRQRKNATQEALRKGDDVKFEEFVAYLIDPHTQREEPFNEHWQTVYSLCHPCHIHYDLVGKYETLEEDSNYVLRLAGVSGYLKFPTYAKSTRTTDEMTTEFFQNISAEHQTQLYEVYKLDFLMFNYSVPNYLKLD

Experiment [2] deals with G4ST. As to the kind of experiment: G4ST enzymatic activity assay ([35S]PAPS sulfate transfer to chondroitin). As for the experimental part: The activities of G4ST and C6ST were assayed in accordance with the method of Habuchi, O. et al. (Habuchi, O., Matsui, Y., Kotoya, Y., Aoyama, Y., Yasuda, Y., and Noda, M., (1993) J. Biol. Chem., 268, 21968-21974). The reaction mixture contained imidazole hydrochloride (2.5 μmol, pH 6.8), protamine chloride (1.25 μg), dithiothreitol (0.1 μmol), chondroitin (25 nmol as glucuronic acid, derived from squid skin, prepared by the method described in Habuchi, O. and Miyata, K. (1980) Biochim. Biophys. Acta 616, 208-217), [^35S]PAPS (50 pmol: about 5.0×10^5 cpm: prepared by the method of Delfert, D. M., et al. (Delfert, D. M., and Conrad, H. E. (1985) Anal. Biochem. 148, 303-310)) and an enzyme in a final volume of 50 μl.
The above-mentioned reaction mixture was incubated at 37° C. for 20 minutes and immersed in a water bath kept at 100° C. for 1 minute to stop the enzymatic reaction. After the reaction was stopped, [^35S]-labeled chondroitin was isolated by desalting by gel chromatography using a Fast Desalting Column and precipitation with ethanol, and radioactivity was measured by the conventional manner.
To distinguish the activities of C6ST and G4ST one from another, [^35S]-labeled chondroitin was digested with chondroitinase ACII and unsaturated disaccharides (ΔDi-4S (2-acetamide-2-deoxy-3-O-(β-D-gluco-4-enepyranosyluronic acid)-4-O-sulfo-D-galactose) and ΔDi-6S (2-acetamide-2-deoxy-3-O-(β-D-gluco-4-enepyranosyluronic acid-6-O-sulfo-D-galactose)) were separated by paper chromatography (filter paper: Toyo No. 51A and solvent: 1-butanol/acetic acid/NH3 (1 M) (volume ratio 2:3:1)), the separated unsaturated disaccharides were visualized by irradiation of ultraviolet rays, the regions containing the disaccharides were cut out, and then radioactivities thereof were counted.
The amount of enzymatic activity required for transferring 1 pmol of a sulfate group for 1 minute under the conditions of 37° C. and pH 6.8 was defined as one unit as a unit of enzymatic activity.
Also, in the above-mentioned assay method for enzymatic activity, pH of imidazole hydrochloride buffer in the reaction mixture was varied (pH range: 6.3 to 7.6) and in addition, the buffer was replaced by one of buffers having various pH ranges (0.05 M, acetate buffer: pH 4.2 to 5.4, MES buffer: pH 5.4 to 6.8, Tris-HCl buffer: pH 7.2 to 9.0), and G4ST activity was assayed at each pH range (FIG. 6B).
In the above-mentioned assay method for enzymatic activity, the concentration of [^35S]PAPS in the reaction mixture was varied to measure the Km value of [^35S]PAPS as a sulfate group donor.

Experiment [3] deals with G4ST. As to the kind of experiment: Identification of the sulfate group-transferring site of G4ST (chondroitinase digestion, HPLC / Superdex 30). The conditions noted are these: 35S-labeled by G4ST, digested with chondroitinase ACII, Partisil 10-SAX HPLC. As for the experimental part: To identify the sulfate group-transferring. site of chondroitin and desulfated dermatan sulfate, ^35S-labeled glycosaminoglycan obtained by sulfotransfer reaction by G4ST was digested with chondroitinase ACII (manufactured by Seikagaku Corp.) or chondroitinase ABC (manufactured by Seikagaku Corp.) and the digestion products were analyzed by HPLC (high performance liquid chromatography). ^35S-Labeling was performed under the same conditions as the above-mentioned assay method for enzymatic activity except that the amount of protamine chloride was increased to 10 μg. The unsaturated disaccharides obtained by the digestion of ^35S-labeled chondroitin and ^35S-labeled desulfated dermatan sulfate with chondroitinase ACII or chondroitinase ABC were isolated by HPLC using a Partisil 10-SAX column (4.5 mm×25 cm: manufactured by Whatman) equiberated with KH2PO4 (35 mM). The column was eluted by concentration gradient of KH2PO4 under the conditions of a flow rate of 1 ml/minute and a column temperature of 40° C. to recover 0.5 ml of fractions.
Further, a Superdex 30 gel chromatography was performed using a digestion product obtained by digesting ^35S-labeled desulfated dermatan sulfate with chondroitinase ABC and chondroltinase ACII or chondroitinase ACII alone. […]
Target sequence in this assay (P69478 101-352 limits assumed): as above

Experiment [4] deals with G4ST. Briefly: G4ST enzymatic activity assay ([35S]PAPS sulfate transfer to chondroitin). Particulars: protamine 0.25 mg/ml.
Target sequence in this assay (P69478 101-352 limits assumed): as above
The mark [5] stands for this setting: SH group-containing substance in the reaction mixture.

chondroitin sulfate A: in the experiment with G4ST [1], the “transfer of a sulfate group by G4ST to the glycosaminoglycan as acceptor” value (“transfer of a sulfate group by G4ST” below) was “slight amount of activity; also recorded: transfers a sulfate group”.
For the compound `[Mg+2]` [Mg^2+], the “activating action on G4ST compared with other metal ions” value in the experiment on G4ST [2] (concentration not printed for Mg2+) is listed as “lowest in such an activating action”.
What is called Km is the substrate concentration at which the rate is half of its maximum. As for `Nc1ncnc2c1ncn2[C@@H]1O[C@H](COP(=O)(O)OS(=O)(=O)O)[C@@H](OP(=O)(O)O)[C@H]1O` [PAPS, 3′-phosphoadenosine 5′-phosphosulfate], the Km in the experiment with G4ST [2] ([35S]PAPS as sulfate group donor, concentration varied) was 0.27 µM.
`OCCS` [2-mercaptoethanol]: the “effect on G4ST activity” value in the experiment with G4ST [2] (setting [5]) is “enhanced the G4ST activity”.
For `O[C@H](CS)[C@H](O)CS` (racemic) [dithiothreitol], the “effect on G4ST activity” value with G4ST [2] (setting [5]) is given as “enhanced the activity of G4ST”.
On to `N[C@@H](CCC(=O)N[C@@H](CS)C(=O)NCC(=O)O)C(=O)O` [reduced glutathione], for which the “effect on G4ST activity” value in the experiment on G4ST [2] (setting [5]) is listed as “enhanced the G4ST activity”.
Take chondroitin: the “radioactivity in eluted fractions of ΔDi-4S” value with G4ST [3] is given as “radioactivity was detected only in the eluted fractions of ΔDi-4S”. Further, the “transfer of a sulfate group by G4ST” value in the experiment on G4ST [1] is “transfers a sulfate group”. The “lowest protamine chloride concentration at which enhancement of activity was observed” value in the experiment with G4ST [1] (protamine chloride in various concentrations) was found to be 0.25 mg/mL.
Consider keratan sulfate, for which the “transfer of a sulfate group by G4ST” value in the experiment with G4ST [1] is given as “transferred substantially no sulfate group”.
As for `[Fe+2]` [Fe^2+], in the experiment with G4ST [2] (metal ion 5 mM), the “effect on G4ST activity” value is on record as “activated; also recorded: enhanced”.
Consider `[Sr+2]` [Sr^2+], for which the “effect on G4ST activity” value in the experiment with G4ST [2] (metal ion 5 mM) is recorded as “activated; also recorded: enhanced”.
For the compound chondroitin sulfate C, the “transfer of a sulfate group by G4ST” value in the experiment on G4ST [1] is on record as “transfers a sulfate group”.
The same measure, in the same setting: in the case of chondroitin sulfate E it was “transferred substantially no sulfate group”.
Turning to protamine, the “effect on G4ST activity” value with G4ST [4] is given as “activated; also recorded: enhanced”.
As for `[Co+2]` [Co^2+], the “effect on G4ST activity” value in the experiment with G4ST [2] (metal ion 5 mM) is given as “inhibit the activity of G4ST; also recorded: inhibited”.
Take heparan sulfate: the “transfer of a sulfate group by G4ST” value with G4ST [1] is “transferred substantially no sulfate group; also recorded: transfers substantially no sulfate group”.
`[Mn+2]` [Mn^2+]: in the experiment with G4ST [2] (metal ion 5 mM), the “effect on G4ST activity” value is “activated; also recorded: enhanced”.
For dermatan sulfate, in the experiment on G4ST [1], the “transfer of a sulfate group by G4ST” value is given as “transferred substantially no sulfate group”.
As to `[Ba+2]` [Ba^2+], the “effect on G4ST activity” value in the experiment with G4ST [2] (metal ion 5 mM) was “activated; also recorded: enhanced”.
Same read-out and setting: the result for `[Ca+2]` [Ca^2+] reads “activated; also recorded: most activated; also recorded: enhanced”.
